Test results taken from the NIST ThermoML archive (doi:10.1021/je0340755).

Assay: xn = mol fraction of the nth substance listed
Conditions: 101.3 kPa, Liquid; for viscosity: Capillary tube (Ostwald / Ubbelohde) method

CC(O)CCO (stereo not given) [1,3-butanediol] + O
Conditions | mass density, 318.15 K [kg/m3] | mass density, 328.15 K [kg/m3] | mass density, 338.15 K [kg/m3] | speed of sound, 318.15 K [m/s] | speed of sound, 328.15 K [m/s] | speed of sound, 338.15 K [m/s] | viscosity, 328.15 K [mPa·s] | viscosity, 338.15 K [mPa·s]
x2 = 0.045 | – | 980.01 | 972.67 | – | 1456.8 | 1438.1 | 17.94 | 11.63
x2 = 0.1445 | – | 982.02 | 974.54 | – | 1473 | 1452.7 | 15.5 | 9.961
x2 = 0.2499 | – | 984.33 | 976.7 | – | 1489.7 | 1468.1 | 12.68 | 8.015
x2 = 0.3526 | – | 986.62 | 978.84 | – | 1509.9 | 1486.2 | 9.939 | 6.116
x2 = 0.4519 | – | 988.88 | 980.99 | – | 1530.8 | 1506.1 | 7.454 | 4.415
x2 = 0.5035 | – | 990.12 | 982.18 | 1566.6 | 1542.3 | 1516.1 | 6.269 | 3.616
x2 = 0.5563 | 1001.18 | 991.47 | 983.48 | 1579.1 | 1554.1 | 1527.9 | 5.15 | 2.874
x2 = 0.6507 | 1003.55 | 993.99 | 985.94 | 1604.8 | 1579.6 | 1552 | 3.415 | 1.759
x2 = 0.7518 | 1005.28 | 996.11 | 988.14 | 1638.6 | 1612.2 | 1584.1 | 1.97 | 0.895
x2 = 0.8477 | 1004.06 | 995.8 | 988.28 | 1662.4 | 1638.8 | 1611.3 | 1.028 | 0.418
x2 = 0.9081 | 1000.51 | 993.31 | 986.44 | 1652.9 | 1635.3 | 1614.1 | 0.666 | 0.302
x2 = 0.9152 | 999.92 | 992.87 | 986.1 | 1649.3 | 1633 | 1612.4 | 0.636 | 0.299
x2 = 0.9253 | 999 | 992.19 | 985.58 | 1643 | 1628.7 | 1609.7 | 0.598 | 0.298
x2 = 0.9355 | 998 | 991.44 | 985 | 1635.1 | 1622.5 | 1606.3 | 0.565 | 0.301
x2 = 0.9521 | 996.21 | 990.11 | 983.95 | 1618.5 | 1610.6 | 1597.7 | 0.525 | 0.317
x2 = 0.9543 | 995.96 | 989.92 | 983.8 | 1616 | 1608.3 | 1596.6 | 0.521 | 0.32
x2 = 0.9597 | 995.33 | 989.45 | 983.44 | 1609.2 | 1603.1 | 1592.9 | 0.512 | 0.329
x2 = 0.9699 | 994.09 | 988.53 | 982.72 | 1594.8 | 1591.7 | 1585.4 | 0.5 | 0.348
x2 = 0.9804 | 992.76 | 987.55 | 981.96 | 1577.4 | 1578.7 | 1575.5 | 0.495 | 0.374
x2 = 0.9901 | 991.5 | 986.62 | 981.25 | 1558.9 | 1563.6 | 1565.5 | 0.496 | 0.403
x2 = 0.9924 | 991.2 | 986.41 | 981.09 | 1554.1 | 1559.6 | 1561.7 | 0.497 | 0.411
x2 = 0.9955 | 990.8 | 986.11 | 980.87 | 1547.5 | 1555 | 1558.4 | 0.499 | 0.422
